Experimental data reported in the supplement of paper PMC11368000.

Key:
Conditions in all cases: exposure time: 90 min
1118 [1] = donor line of iPSC-derived cardiomyocytes; test: POD (EC10) for decrease in total cell number (cytotoxicity) vs vehicle; higher = less potent (higher point of departure)
Outline: (§1)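 Human iPSC-derived cardiomyocytes from 16 donors were cultured 14 days in 384-well plates, then exposed for 90 min at 37 °C to 0.1, 1, 10 and 100 µM (final, 0.5% DMSO). After the Ca2+ flux read, cells were stained 15 min with Hoechst 33342 (2.2 µg/mL) and MitoTracker Orange and imaged at 10× on an ImageXpress Micro Confocal. Nuclei were counted per field in MetaXpress. Donor-specific cytotoxicity points of departure came from hierarchical Bayesian Hill fits to vehicle-normalised counts, using a 10% decrease.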

1309 [2] = donor line of iPSC-derived cardiomyocytes; test: as above
Outline: as §1

1516 = donor line of iPSC-derived cardiomyocytes; test: as above
Outline: as §1

1518 = donor line of iPSC-derived cardiomyocytes; test: as above
Outline: as §1

1531 = donor line of iPSC-derived cardiomyocytes; test: as above
Outline: as §1

20032 [3] = donor line of iPSC-derived cardiomyocytes; test: as above
Outline: as §1

30171 [4] = donor line of iPSC-derived cardiomyocytes; test: as above
Outline: as §1

1083 = donor line of iPSC-derived cardiomyocytes; test: POD (EC05) for increase in Ca2+ transient decay-to-rise ratio (QT prolongation) vs vehicle; higher = less potent (higher point of departure)
Experimental: (§2)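 Human iPSC-derived cardiomyocytes from 16 donors were exposed for 90 min at 37 °C to each PFAS at 0.1, 1, 10 and 100 µM in 0.5% DMSO, 384-well plates. Kinetic Ca2+ flux (FLIPR) and Hoechst nuclei counts were normalised to vehicle wells and fitted with a hierarchical Bayesian Hill model to give donor-specific PODs: EC05 for beat-rate increase or decrease and for decay-to-rise ratio increase (QT proxy), EC95 for peak-frequency loss (asystole), EC10 for total cell number loss. 0.03 µM is the lower bound.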

1118 [5] = test: as above
Experimental: as §2

11235 = donor line of iPSC-derived cardiomyocytes; test: as above
Experimental: as §2

1309 [6] = test: as above
Experimental: as §2

1368 = donor line of iPSC-derived cardiomyocytes; test: as above
Experimental: as §2

1392 = donor line of iPSC-derived cardiomyocytes; test: as above
Experimental: as §2

1434 = donor line of iPSC-derived cardiomyocytes; test: as above
Experimental: as §2

1535 = donor line of iPSC-derived cardiomyocytes; test: as above
Experimental: as §2

1565 = donor line of iPSC-derived cardiomyocytes; test: as above
Experimental: as §2

20032 [7] = test: as above
Experimental: as §2

20084 = donor line of iPSC-derived cardiomyocytes; test: as above
Experimental: as §2

30145 = donor line of iPSC-derived cardiomyocytes; test: as above
Experimental: as §2

30171 [8] = test: as above
Experimental: as §2

Compound: O=C(O)C(F)(F)C(F)(F)C(F)(F)OC(F)(F)F [Perfluoro(4-methoxybutanoic)_acid]
- POD vs vehicle 1118 [1]: > 100 µM
- POD vs vehicle 1309 [2]: > 100 µM
- POD vs vehicle 1516: > 100 µM
- POD vs vehicle 1518: > 100 µM
- POD vs vehicle 1531: > 100 µM
- POD vs vehicle 20032 [3]: > 100 µM
- POD vs vehicle 30171 [4]: > 100 µM
- POD vs vehicle 1083: > 100 µM
- POD vs vehicle 1118 [5]: > 100 µM
- POD vs vehicle 11235: > 100 µM
- POD vs vehicle 1309 [6]: > 100 µM
- POD vs vehicle 1368: > 100 µM
- POD vs vehicle 1392: > 100 µM
- POD vs vehicle 1434: > 100 µM
- POD vs vehicle 1535: > 100 µM
- POD vs vehicle 1565: > 100 µM
- POD vs vehicle 20032 [7]: > 100 µM
- POD vs vehicle 20084: > 100 µM
- POD vs vehicle 30145: > 100 µM
- POD vs vehicle 30171 [8]: > 100 µM

Compound: O=C(O)C(F)(F)OC(F)(F)C(F)(F)OC(F)(F)C(=O)O [Perfluoro-3,6-dioxaoctane-1,8-dioic_acid]
- POD vs vehicle 1118 [1]: > 100 µM
- POD vs vehicle 1309 [2]: > 100 µM
- POD vs vehicle 1516: > 100 µM
- POD vs vehicle 1518: > 100 µM
- POD vs vehicle 1531: > 100 µM
- POD vs vehicle 20032 [3]: > 100 µM
- POD vs vehicle 30171 [4]: > 100 µM
- POD vs vehicle 1083: > 100 µM
- POD vs vehicle 1118 [5]: > 100 µM
- POD vs vehicle 11235: > 100 µM
- POD vs vehicle 1309 [6]: > 100 µM
- POD vs vehicle 1368: > 100 µM
- POD vs vehicle 1392: > 100 µM
- POD vs vehicle 1434: > 100 µM
- POD vs vehicle 1535: > 100 µM
- POD vs vehicle 1565: > 100 µM
- POD vs vehicle 20032 [7]: > 100 µM
- POD vs vehicle 20084: > 100 µM
- POD vs vehicle 30145: > 100 µM
- POD vs vehicle 30171 [8]: > 100 µM

Compound: OCCC(F)(F)C(F)(F)C(F)(F)C(F)(F)C(F)(F)C(F)(F)F [6:2 Fluorotelomer alcohol]
- POD vs vehicle 1118 [1]: > 100 µM
- POD vs vehicle 1309 [2]: > 100 µM
- POD vs vehicle 1516: > 100 µM
- POD vs vehicle 1518: > 100 µM
- POD vs vehicle 1531: > 100 µM
- POD vs vehicle 20032 [3]: > 100 µM
- POD vs vehicle 30171 [4]: > 100 µM
- POD vs vehicle 1083: > 100 µM
- POD vs vehicle 1118 [5]: > 100 µM
- POD vs vehicle 11235: > 100 µM
- POD vs vehicle 1309 [6]: > 100 µM
- POD vs vehicle 1368: > 100 µM
- POD vs vehicle 1392: > 100 µM
- POD vs vehicle 1434: > 100 µM
- POD vs vehicle 1535: > 100 µM
- POD vs vehicle 1565: > 100 µM
- POD vs vehicle 20032 [7]: > 100 µM
- POD vs vehicle 20084: > 100 µM
- POD vs vehicle 30145: > 100 µM
- POD vs vehicle 30171 [8]: > 100 µM

Compound: O=S(=O)(O)CCC(F)(F)C(F)(F)C(F)(F)C(F)(F)C(F)(F)C(F)(F)C(F)(F)C(F)(F)F [8:2 Fluorotelomer sulfonic acid]
- POD vs vehicle 1118 [1]: > 100 µM
- POD vs vehicle 1309 [2]: > 100 µM
- POD vs vehicle 1516: > 100 µM
- POD vs vehicle 1518: > 100 µM
- POD vs vehicle 1531: > 100 µM
- POD vs vehicle 20032 [3]: > 100 µM
- POD vs vehicle 30171 [4]: > 100 µM
- POD vs vehicle 1083: > 100 µM
- POD vs vehicle 1118 [5]: > 100 µM
- POD vs vehicle 11235: > 100 µM
- POD vs vehicle 1309 [6]: > 100 µM
- POD vs vehicle 1368: > 100 µM
- POD vs vehicle 1392: > 100 µM
- POD vs vehicle 1434: 17.2 µM
- POD vs vehicle 1535: > 100 µM
- POD vs vehicle 1565: > 100 µM
- POD vs vehicle 20032 [7]: > 100 µM
- POD vs vehicle 20084: 21.9 µM
- POD vs vehicle 30145: > 100 µM
- POD vs vehicle 30171 [8]: 20.1 µM

Compound: O=C(O)CCC(F)(F)C(F)(F)C(F)(F)F [3:3 Fluorotelomer carboxylic acid]
- POD vs vehicle 1118 [1]: > 100 µM
- POD vs vehicle 1309 [2]: > 100 µM
- POD vs vehicle 1516: > 100 µM
- POD vs vehicle 1518: > 100 µM
- POD vs vehicle 1531: > 100 µM
- POD vs vehicle 20032 [3]: > 100 µM
- POD vs vehicle 30171 [4]: > 100 µM
- POD vs vehicle 1083: > 100 µM
- POD vs vehicle 1118 [5]: > 100 µM
- POD vs vehicle 11235: > 100 µM
- POD vs vehicle 1309 [6]: > 100 µM
- POD vs vehicle 1368: > 100 µM
- POD vs vehicle 1392: > 100 µM
- POD vs vehicle 1434: > 100 µM
- POD vs vehicle 1535: > 100 µM
- POD vs vehicle 1565: > 100 µM
- POD vs vehicle 20032 [7]: > 100 µM
- POD vs vehicle 20084: > 100 µM
- POD vs vehicle 30145: > 100 µM
- POD vs vehicle 30171 [8]: > 100 µM

Compound: OCCC(F)(F)C(F)(F)C(F)(F)C(F)(F)C(F)(F)C(F)(F)C(F)(F)C(F)(F)F [8:2 Fluorotelomer alcohol]
- POD vs vehicle 1118 [1]: > 100 µM
- POD vs vehicle 1309 [2]: > 100 µM
- POD vs vehicle 1516: > 100 µM
- POD vs vehicle 1518: > 100 µM
- POD vs vehicle 1531: > 100 µM
- POD vs vehicle 20032 [3]: > 100 µM
- POD vs vehicle 30171 [4]: > 100 µM
- POD vs vehicle 1083: > 100 µM
- POD vs vehicle 1118 [5]: > 100 µM
- POD vs vehicle 11235: > 100 µM
- POD vs vehicle 1309 [6]: > 100 µM
- POD vs vehicle 1368: > 100 µM
- POD vs vehicle 1392: > 100 µM
- POD vs vehicle 1434: > 100 µM
- POD vs vehicle 1535: > 100 µM
- POD vs vehicle 1565: > 100 µM
- POD vs vehicle 20032 [7]: > 100 µM
- POD vs vehicle 20084: > 100 µM
- POD vs vehicle 30145: > 100 µM
- POD vs vehicle 30171 [8]: > 100 µM

Compound: OCC(F)(F)C(F)(F)C(F)(F)F [Heptafluorobutanol]
- POD vs vehicle 1118 [1]: > 100 µM
- POD vs vehicle 1309 [2]: > 100 µM
- POD vs vehicle 1516: > 100 µM
- POD vs vehicle 1518: > 100 µM
- POD vs vehicle 1531: > 100 µM
- POD vs vehicle 20032 [3]: > 100 µM
- POD vs vehicle 30171 [4]: > 100 µM
- POD vs vehicle 1083: > 100 µM
- POD vs vehicle 1118 [5]: > 100 µM
- POD vs vehicle 11235: > 100 µM
- POD vs vehicle 1309 [6]: > 100 µM
- POD vs vehicle 1368: > 100 µM
- POD vs vehicle 1392: > 100 µM
- POD vs vehicle 1434: > 100 µM
- POD vs vehicle 1535: > 100 µM
- POD vs vehicle 1565: > 100 µM
- POD vs vehicle 20032 [7]: > 100 µM
- POD vs vehicle 20084: > 100 µM
- POD vs vehicle 30145: > 100 µM
- POD vs vehicle 30171 [8]: > 100 µM

Compound: O=C(O)C(F)(F)C(F)(F)C(F)(F)C(F)(F)C(F)(F)F [Perfluorohexanoic_acid]
- POD vs vehicle 1118 [1]: > 100 µM
- POD vs vehicle 1309 [2]: > 100 µM
- POD vs vehicle 1516: > 100 µM
- POD vs vehicle 1518: > 100 µM
- POD vs vehicle 1531: > 100 µM
- POD vs vehicle 20032 [3]: > 100 µM
- POD vs vehicle 30171 [4]: > 100 µM
- POD vs vehicle 1083: > 100 µM
- POD vs vehicle 1118 [5]: > 100 µM
- POD vs vehicle 11235: > 100 µM
- POD vs vehicle 1309 [6]: > 100 µM
- POD vs vehicle 1368: > 100 µM
- POD vs vehicle 1392: > 100 µM
- POD vs vehicle 1434: > 100 µM
- POD vs vehicle 1535: > 100 µM
- POD vs vehicle 1565: > 100 µM
- POD vs vehicle 20032 [7]: > 100 µM
- POD vs vehicle 20084: > 100 µM
- POD vs vehicle 30145: > 100 µM
- POD vs vehicle 30171 [8]: > 100 µM

Compound: OCC(F)(F)C(F)(F)C(F)(F)CO [Hexafluoroamylene_glycol]
- POD vs vehicle 1118 [1]: > 100 µM
- POD vs vehicle 1309 [2]: > 100 µM
- POD vs vehicle 1516: > 100 µM
- POD vs vehicle 1518: > 100 µM
- POD vs vehicle 1531: > 100 µM
- POD vs vehicle 20032 [3]: > 100 µM
- POD vs vehicle 30171 [4]: > 100 µM
- POD vs vehicle 1083: > 100 µM
- POD vs vehicle 1118 [5]: > 100 µM
- POD vs vehicle 11235: > 100 µM
- POD vs vehicle 1309 [6]: > 100 µM
- POD vs vehicle 1368: > 100 µM
- POD vs vehicle 1392: > 100 µM
- POD vs vehicle 1434: > 100 µM
- POD vs vehicle 1535: > 100 µM
- POD vs vehicle 1565: > 100 µM
- POD vs vehicle 20032 [7]: > 100 µM
- POD vs vehicle 20084: > 100 µM
- POD vs vehicle 30145: > 100 µM
- POD vs vehicle 30171 [8]: > 100 µM
